Key:
Test in all cases: I-Ag7 SABR-II library screen, enrichment score
Format in all cases: cell-based, mouse
TCR10B = conditions: TCR_Mean minus PREDICTED_TCR (from LIB_Mean, SLOPE 0.894516, INTERCEPT 2.58857e-5), PZ51
From the text: (§1) We then asked whether SABR-IIs could be used to present a library of epitopes for CD4^+ T cell antigen discovery. To that end, we constructed a SABR-II library to present epitopes derived from pancreatic islets in I-Ag7 by curating a list of 4,075 published epitopes from the Immune Epitope Database (iedb.org)[50] and a study by Wan et al.[51] (Supplementary Table 1). Of note, this defined library consisted of unmodified epitopes from endogenous proteins, synthetic mimotopes, deamidated epitopes and hybrid insulin peptides (HIPs) that arise from post-translational fusion and are not genetically encoded in vivo[52],[53]. The epitope library was inserted into the I-Ag7 SABR-II backbone through pooled oligonucleotide synthesis, amplification and ligation-free cloning (Extended Data Fig. 3a). The I-Ag7 SABR-II-library was then expressed in NFAT–GFP Jurkat cells. We confirmed that after sequencing, the library accounted for a mean of 708 reads per epitope (Extended Data Fig. 3b). As a proof of concept, we performed co-incubation assays with Jurkat cells expressing the BDC2.5 TCR and sorted the top 1–2% of GFP^+CD69^+ cells at a rate of ~20 min per replicate with three replicates per TCR. We extracted the genomic DNA from sorted cells, amplified the SABR portion of the integrated proviruses and subjected the amplicons to Illumina sequencing (Extended Data Fig. 3c,d). The 1–2% sort gate represents >50-fold enrichment of cognate epitopes with minimal loss of signal (Extended Data Fig. 3e–h). Sequence reads were aligned to the I-Ag7 SABR-II backbone and the corresponding epitopes were scored based on their read counts. For each TCR under investigation, an enrichment score (ES) was determined for all the epitopes in a library. In each experiment, three replicates of a sort with TCR-expressing Jurkat cells were performed and reads were counted post-sequencing. In addition, three replicates of the unsorted library were also sequenced. A linear regression model was built using the unsorted library counts and used to determine the expected abundance of each epitope in the library. The ES was calculated based on the difference between the measured and the expected abundance of each epitope on a per-TCR basis (Fig. 1e). Based on ES values, two quantitative thresholds were used to determine putative cognate epitopes of a given TCR. A high-confidence zone containing clear outliers with a high ES and a low-confidence zone containing weak outliers with a moderately high ES were determined (Fig. 1e). This two-tiered strategy was used to call putative hits from screens. All the top-scoring epitopes for the BDC2.5 TCR were known BDC2.5 ligands containing the WXRM(D/E) motif (Fig. 1f,g, enriched ligands in red), a well-characterized trait of the BDC2.5 TCR[43],[54]–[56]. Across several independent experiments there was limited variation in ES values for the same TCRs and several epitopes fell into high- or low-confidence zones consistently (Extended Data Fig. 4a). Using a different TCR that was isolated from NOD mice, 4-8Ins[57], which recognized the InsB9:23 epitope ([…]), we observed a similar pattern of ES for cognate epitopes (Extended Data Fig. 4b).
(§2) We performed systematic screening of the cloned TCRs against the I-Ag7 SABR-II library. Several TCRs along with a positive control (such as BDC2.5 or 4-8Ins) were screened individually against the library for each sort (Extended Data Fig. 6a and Supplementary Table 4). High- and low-confidence ES zones for each screened TCR were defined by the ES values of the control TCR’s cognate epitopes. For all putative cognate epitopes, single SABR-IIs were constructed, expressed in NFAT–GFP Jurkat cells and used for co-incubation with the corresponding TCRs. Co-incubation assays that yielded a GFP signal higher than that obtained in assays with no TCR were determined to be positive and the epitopes deemed true cognate ligands (Extended Data Fig. 6b,c). […]

TCR13 = test system: TCR13
From the text: as §1, §2

TCR17A = conditions: TCR_Mean minus PREDICTED_TCR (from LIB_Mean, SLOPE 0.925966, INTERCEPT 1.81678e-5), PZ52
From the text: as §1, §2

TCR17B = conditions: TCR_Mean minus PREDICTED_TCR (from LIB_Mean, SLOPE 0.911347, INTERCEPT 2.17553e-5), PZ52
From the text: as §1, §2

TCR17D = conditions: TCR_Mean minus PREDICTED_TCR (from LIB_Mean, SLOPE 0.965121, INTERCEPT 8.55929e-6), PZ52
From the text: as §1, §2

TCR1 = conditions: sheet TCR1-PZ44; ES = TCRObserved - TCRPredicted; TCRPredicted = LIBObserved x SLOPE + INTERCEPT; SLOPE 0.917532, INTERCEPT 2.02377e-5
From the text: as §1, §2

TCR21A = conditions: TCR_Mean minus PREDICTED_TCR (slope 0.957287, intercept 1.04818e-5 on LIB_Mean), TCR 21A, run PZ56
From the text: as §1, §2

TCR23 = test system: TCR23
From the text: as §1, §2

TCR29 = conditions: TCR_Mean minus PREDICTED_TCR (slope 0.951614, intercept 1.18738e-5 on LIB_Mean), TCR 29, run PZ98
From the text: as §1, §2

TCR2 = conditions: sheet TCR2-PZ44; ES = TCRObserved - TCRPredicted; TCRPredicted = LIBObserved x SLOPE + INTERCEPT; SLOPE 0.908797, INTERCEPT 2.23811e-5
From the text: as §1, §2

TCR36 = conditions: TCR_Mean minus PREDICTED_TCR (slope 0.914754, intercept 2.09193e-5 on LIB_Mean), TCR 36, run PZ57
From the text: as §1, §2

TCR6B = conditions: sheet TCR6B-PZ37; ES = TCRObserved - TCRPredicted; TCRPredicted = LIBObserved x SLOPE + INTERCEPT; SLOPE 0.908569, INTERCEPT 2.24372e-5
From the text: as §1, §2

[1] = I-Ag7 library, one biological experiment
[2] = TCR13, TCR_Mean minus PREDICTED_TCR (from LIB_Mean, SLOPE 0.90397, INTERCEPT 2.35655e-5), PZ51
[3] = TCR_Mean minus PREDICTED_TCR (slope 0.987149, intercept 3.15366e-6 on LIB_Mean), TCR 23, run PZ56

## AAVEEGIVAGGGVTLL
TCR10B
  Enrichment score: -7.785e-5
TCR13; [1]
  Enrichment score: 0.0001546
TCR13; [2]
  Enrichment score: 0.0001546
TCR17A
  Enrichment score: -0.0001329
TCR17B
  Enrichment score: -0.0001643
TCR17D
  Enrichment score: 9.065e-5
TCR1
  Enrichment score: 0.0002622
TCR21A
  Enrichment score: 7.745e-5
TCR23; [1]
  Enrichment score: -9.242e-5
TCR23; [3]
  Enrichment score: 8.213e-5
TCR29
  Enrichment score: -4.805e-5
TCR2
  Enrichment score: 9.944e-5
TCR36
  Enrichment score: -0.0001187
TCR6B
  Enrichment score: 4.397e-5

## AEKVRNLPAGHGLNAQ
TCR10B
  Enrichment score: -0.0001336
TCR13; [1]
  Enrichment score: 0.000137
TCR13; [2]
  Enrichment score: 0.000137
TCR17A
  Enrichment score: -0.0001276
TCR17B
  Enrichment score: -3.983e-5
TCR17D
  Enrichment score: -0.00018
TCR1
  Enrichment score: 9.239e-5
TCR21A
  Enrichment score: 0.0001683
TCR23; [1]
  Enrichment score: 8.732e-6
TCR23; [3]
  Enrichment score: 0.0001238
TCR29
  Enrichment score: -9.799e-5
TCR2
  Enrichment score: 0.0001311
TCR36
  Enrichment score: -6.905e-5
TCR6B
  Enrichment score: -0.0001883

## AGGVAVIKAGAATEV
TCR10B
  Enrichment score: 1.586e-6
TCR13; [1]
  Enrichment score: 0.0001675
TCR13; [2]
  Enrichment score: 0.0001675
TCR17A
  Enrichment score: -5.895e-5
TCR17B
  Enrichment score: 5.455e-5
TCR17D
  Enrichment score: -6.024e-5
TCR1
  Enrichment score: 3.28e-9
TCR21A
  Enrichment score: 3.881e-5
TCR23; [1]
  Enrichment score: -9.6548e-5
TCR23; [3]
  Enrichment score: -7.52e-5
TCR29
  Enrichment score: -4.862e-5
TCR2
  Enrichment score: -1.7e-5
TCR36
  Enrichment score: -1.016e-5
TCR6B
  Enrichment score: 0.0001547

## AKAAVEEGIVAGGGV
TCR10B
  Enrichment score: 7.202e-5
TCR13; [1]
  Enrichment score: 0.0001008
TCR13; [2]
  Enrichment score: 0.0001008
TCR17A
  Enrichment score: 7.661e-5
TCR17B
  Enrichment score: 0.0004148
TCR17D
  Enrichment score: -0.0001083
TCR1
  Enrichment score: -8.988e-5
TCR21A
  Enrichment score: -4.928e-5
TCR23; [1]
  Enrichment score: -2.11e-5
TCR23; [3]
  Enrichment score: -9.2e-5
TCR29
  Enrichment score: -1.352e-5
TCR2
  Enrichment score: -6.466e-5
TCR36
  Enrichment score: -3.854e-5
TCR6B
  Enrichment score: 0.0001193

## ALVREGLRNVAAGANP
TCR10B
  Enrichment score: -2.589e-5
TCR13; [1]
  Enrichment score: -2.357e-5
TCR13; [2]
  Enrichment score: -2.357e-5
TCR17A
  Enrichment score: -1.826e-5
TCR17B
  Enrichment score: -2.185e-5
TCR17D
  Enrichment score: -8.6588e-6
TCR1
  Enrichment score: -2.024e-5
TCR21A
  Enrichment score: -1.111e-5
TCR23; [1]
  Enrichment score: -1.174e-5
TCR23; [3]
  Enrichment score: -3.805e-6
TCR29
  Enrichment score: -1.187e-5
TCR2
  Enrichment score: -2.238e-5
TCR36
  Enrichment score: -2.092e-5
TCR6B
  Enrichment score: -2.303e-5
